In ChEMBL document CHEMBL1201862, “PubChem BioAssay data set” (2004):
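Step 1: Grow cells in 96-well plates. Step 2: Expose to compound for 48 hours at 5 concentrations. Step 3: Interpolate endpoints linearly; if unreached, use highest concentration. GI50 marks 50% less growth.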 Active and inactive are the calls of the source. Cut-off read from the data, not from the text of the source: active = GI50 up to about 1.1 µM and inactive = higher.

Assays:
Assay in all cases: NCI tumour cell line growth inhibition, 48 h
[1] = test system: TK-10
[2] = test system: RPMI-8226
[3] = test system: SK-MEL-2
[4] = test system: SW-620
[5] = test system: PC-3
[6] = test system: SK-OV-3
[7] = test system: HOP-92
[8] = test system: COLO 205
[9] = test system: SR
[10] = test system: HL-60
[11] = test system: M14
[12] = test system: MCF7
[13] = test system: HCC 2998
[14] = test system: MDA-N
[15] = test system: HT-29
[16] = test system: OVCAR-8
[17] = test system: EKVX
[18] = test system: NCI/ADR-RES
[19] = test system: SF-268
[20] = test system: NCI-H23
[21] = test system: T47D
[22] = test system: U-251
[23] = test system: HOP-62
[24] = test system: CAKI-1
[25] = test system: NCI-H522
[26] = test system: HCT-116
[27] = test system: A498
[28] = test system: LOX IMVI
[29] = test system: SNB-19
[30] = test system: NCI-H226
[31] = test system: SK-MEL-28
[32] = test system: NCI-H460
[33] = test system: SN12C
[34] = test system: SF-539
[35] = test system: SF-295
[36] = test system: DU-145
[37] = test system: UACC-62
[38] = test system: IGROV-1
[39] = test system: KM12
[40] = test system: MOLT-4
[41] = test system: MDA-MB-231
[42] = test system: UO-31
[43] = test system: Hs-578T
[44] = test system: OVCAR-3
[45] = test system: OVCAR-5
[46] = test system: MDA-MB-435
[47] = test system: 786-0
[48] = test system: CCRF-CEM
[49] = test system: ACHN
[50] = test system: RXF 393
[51] = test system: Malme-3M
[52] = test system: K562
[53] = test system: SNB-75
[54] = test system: OVCAR-4
[55] = test system: HCT-15
[56] = test system: SK-MEL-5
[57] = test system: A549

O=C(O)C1(CC(CCCN2CCCCC2)c2ccccc2)CCCC1 (configuration not stated)
GI50 [1]: > 100 µM (inactive) | GI50 [2]: > 100 µM (inactive) | GI50 [3]: > 100 µM (inactive) | GI50 [4]: > 100 µM (inactive) | GI50 [5]: > 100 µM (inactive) | GI50 [6]: > 100 µM (inactive) | GI50 [7]: > 100 µM (inactive) | GI50 [8]: > 100 µM (inactive) | GI50 [9]: > 100 µM (inactive) | GI50 [10]: > 100 µM (inactive) | GI50 [11]: > 100 µM (inactive) | GI50 [12]: > 100 µM (inactive) | GI50 [13]: > 100 µM (inactive) | GI50 [14]: > 100 µM (inactive) | GI50 [15]: > 100 µM (inactive) | GI50 [16]: > 100 µM (inactive) | GI50 [17]: > 100 µM (inactive) | GI50 [18]: > 100 µM (inactive) | GI50 [19]: > 100 µM (inactive) | GI50 [20]: > 100 µM (inactive) | GI50 [21]: > 100 µM (inactive) | GI50 [22]: > 100 µM (inactive) | GI50 [23]: > 100 µM (inactive) | GI50 [24]: > 100 µM (inactive) | GI50 [25]: > 100 µM (inactive) | GI50 [26]: > 100 µM (inactive) | GI50 [27]: > 100 µM (inactive) | GI50 [28]: > 100 µM (inactive) | GI50 [29]: > 100 µM (inactive) | GI50 [30]: > 100 µM (inactive) | GI50 [31]: > 100 µM (inactive) | GI50 [32]: > 100 µM (inactive) | GI50 [33]: > 100 µM (inactive) | GI50 [34]: > 100 µM (inactive) | GI50 [35]: > 100 µM (inactive) | GI50 [36]: > 100 µM (inactive) | GI50 [37]: > 100 µM (inactive) | GI50 [38]: > 100 µM (inactive) | GI50 [39]: > 100 µM (inactive) | GI50 [40]: > 100 µM (inactive) | GI50 [41]: > 100 µM (inactive) | GI50 [42]: > 100 µM (inactive) | GI50 [43]: > 100 µM (inactive) | GI50 [44]: 41.8 µM (inactive) | GI50 [45]: > 100 µM (inactive) | GI50 [46]: > 100 µM (inactive) | GI50 [47]: > 100 µM (inactive) | GI50 [48]: > 100 µM (inactive) | GI50 [49]: > 100 µM (inactive) | GI50 [50]: > 100 µM (inactive) | GI50 [51]: > 100 µM (inactive) | GI50 [52]: > 100 µM (inactive) | GI50 [53]: > 100 µM (inactive) | GI50 [54]: > 100 µM (inactive) | GI50 [55]: > 100 µM | GI50 [56]: > 100 µM (inactive) | GI50 [57]: > 100 µM (inactive)
